From patent publication US8198273B2, “Compounds and methods for kinase modulation, and indications therefor” (Plexxikon Inc., priority 2009, dated 2012)

Assays:
CYP2C19 = CYP2C19 (Homo sapiens, UniProt P33261); experiment: CYP2C19 inhibition (fluorescent substrate); type: in vitro ADME; conditions: CYP2C19, CEC substrate; read-out: Cyp IC50 2C19
How it was run: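 10-pt 1:1 serial dilution in co-factor mix (DMSO stock 100 mM); 10 min preincubation, 37 °C; reaction at 37 °C. Readout: fluorescent metabolite of probe substrate. IC50 from signal vs [compound].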

[1] = test system: COLO205 colon adenocarcinoma cells (B-Raf V600E); experiment: COLO205 cell growth inhibition (ATPlite); type: cell-based; conditions: Homo sapiens, COLO 205, 72 h; COLO205, 3 days incubation
How it was run: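 ATPlite luminescence, taken as a cell-number measure, gave IC50 values after a 3-day 37° C, 5% CO2 incubation. Compounds were tested as 8-point threefold titrations, highest final concentration 10 μM, added to cells seeded the day before.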

[2] = Relative solubility by turbidity in aqueous buffers of varying pH; type: physicochemical
How it was run: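 Turbidity endpoint: concentration where optical density at 490, 535 and 650 nm exceeds 0.01, three-wavelength average used. Buffers at pH 1.5, 4.5, 6.8 and 7.4; DMSO serial dilutions of 25 mM stock spiked 1 μL into 99 μL buffer. Low <31.3, moderate 31.3–250, high >250 μM.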

Chain of CYP2C19 (P33261 whole entry): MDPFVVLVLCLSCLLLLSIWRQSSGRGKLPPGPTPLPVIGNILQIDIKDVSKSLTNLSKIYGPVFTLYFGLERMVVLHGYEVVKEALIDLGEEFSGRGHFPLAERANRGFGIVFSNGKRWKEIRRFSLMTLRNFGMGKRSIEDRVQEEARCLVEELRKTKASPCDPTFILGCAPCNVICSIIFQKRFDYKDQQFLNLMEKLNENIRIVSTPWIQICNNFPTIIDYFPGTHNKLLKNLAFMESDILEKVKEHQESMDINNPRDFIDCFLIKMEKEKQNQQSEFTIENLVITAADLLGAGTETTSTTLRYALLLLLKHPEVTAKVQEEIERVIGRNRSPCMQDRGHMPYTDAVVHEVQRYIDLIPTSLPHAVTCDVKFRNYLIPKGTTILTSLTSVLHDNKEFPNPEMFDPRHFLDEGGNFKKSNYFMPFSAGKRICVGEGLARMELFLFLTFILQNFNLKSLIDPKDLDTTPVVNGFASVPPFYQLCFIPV

- IC50 (CYP2C19): > 10 µM
- IC50 [1]: < 0.1 µM
Structure (SMILES): CCCS(=O)(=O)Nc1ccc(F)c(C(=O)c2c[nH]c3ncc(-c4ccc(N(C)C)nc4)cc23)c1F [P-2229, Propane-1-sulfonic acid {3-[5-(6-dimethylamino-pyridin-3-yl)-1H-pyrrolo[2,3-b]pyridine-3-carbonyl]-2,4-difluoro-phenyl}-amide]
- turbidity threshold (L, M, H) 7.4 ([2]; HEPES pH 7.4): M (moderate solubility if the threshold concentration is 31.3 μM to 250 μM)
- turbidity threshold (L, M, H) 4.5 ([2]; SIF pH 4.5): L (low solubility if the threshold concentration is <31.3 04)
- turbidity threshold (L, M, H) 6.8 ([2]; SIF pH 6.8): M (moderate solubility if the threshold concentration is 31.3 μM to 250 μM)
- turbidity threshold (L, M, H) 1.4 ([2]; buffer pH 1.4 (SGF)): M (moderate solubility if the threshold concentration is 31.3 μM to 250 μM)
